# From US7264947B2, “Activity dependent neurotrophic factor III (ADNF III)” (United States of America, as represented by the Secretary …, priority 1997, dated 2007)
# Where “and” joins values, the source holds several entries; their conditions need not be identical. Equal entries are not always repeated. Entries after “also recorded” stand apart in the source; their conditions may differ.
# Key:
# [1] = system: cerebral cortical cultures; format: cell-based, newborn rats; details: 1 μM tetrodotoxin, five days; P<0.01
# [2] = system: cerebral cortical cultures; assay: protection from naturally occurring cell death in cerebral cortical cultures; format: cell-based, newborn rats; details: FIG. 6C, no toxin added
# [3] = system: choline acetyl transferase; assay: brain ChAT (choline acetyl transferase) activity in ApoE-deficient mice; format: in vivo; details: daily subcutaneous injections from birth to 14 days, measured at 21 days
# Experimental: The graph depicts incorporation of radio-labeled choline into acetylcholine. Experiments were conducted as described. Apo-E deficient mice are designated: ApoE; 100% activity in the control (C57B6) mice indicated 669758.4 pmole/mg protein/min. As the experiments were repeated 3-5 times the results were standardized against the control calibrated at 100% per each experiment. ApoE-deficient mice daily injected with peptides are designated ADNF-14, ADNF-9, and NAP, respectively.
# ChAT activity was measured according to published procedures (Formum et al., Neurochem. 24:407-409 (1975)). Brains were homogenized with 10 volumes of 50 mM phosphate buffer containing 300 mM NaCl, 20 mM EDTA, and 0.5% triton. The homogenates were centrifuged at 12,000×g for 15 min., and […] of supernatant was mixed with […] of a solution of […] ^14C-acetyl CoA ([…] NEN), 20 mM acetylcholine, 1.6 mM choline chloride, 0.25 mM eserine, and phosphate buffer. Incubation was 15 min. at 37° C. The reaction was terminated and radioactivity was measured in a beta-counter. • 21. Apolipoprotein E (ApoE) Deficient Mouse Model
# ApoE knockout mice and normal controls were a gift from the late Prof. Shlomo Eisenberg of Tel Aviv University, originally provided by Dr. J. L. Breslow (Plump et al., Cell 71:343-353 (1992)). The ApoE knockout mice were obtained from embryonic stem cells OLA 129 in C57B6×FVB mice (as described). Age-matched controls were inbred C57B6 mice. Groups of mouse pups were treated from birth until the age of 14 days. Daily subcutaneous injections included: […] saline (days 1 through 4), […] saline (days 5 through 10) and […] saline (days 11-14).
# ChAT activity was measured according to published procedures (Formum et al., Neurochem. 24:407-409 (1975)).
# [4] = structure-activity studies of ADNF III peptides (FIGS. 7A and 7B); format: cell-based
substance,measurement,setting,value
Asn-Ala-Pro-Val-Ser-Ile-Pro-Gln [NAP],concentrations of significant neuroprotection against tetrodotoxin,[1],10^−18-10^−14 M
same,protection from naturally occurring cell death,[2],protected neurons
same,brain ChAT activity compared with inbred C57B6 mice,[3],not significantly different; also recorded: indistinguishable from controls
same,brain ChAT activity compared with vehicle-treated or untreated ApoE-deficient mice,[3],significantly improved
same,relative activity in structure-activity studies,[4],most active peptide
same,peak optimum concentrations,"[4]; two peaks, listed as NAPVSIPQ",10^−16-10^−14 M and 10^−11-10^−10 M
